The values below come from patent US9938299B2, “Glycosidase inhibitors and uses thereof” (MERCK SHARP & DOHME CORP., priority 2012, dated 2018).

Data set [1] addresses T1, human O-GlcNAcase (Homo sapiens, UniProt O60502).
T1 sequence (O60502 1-916): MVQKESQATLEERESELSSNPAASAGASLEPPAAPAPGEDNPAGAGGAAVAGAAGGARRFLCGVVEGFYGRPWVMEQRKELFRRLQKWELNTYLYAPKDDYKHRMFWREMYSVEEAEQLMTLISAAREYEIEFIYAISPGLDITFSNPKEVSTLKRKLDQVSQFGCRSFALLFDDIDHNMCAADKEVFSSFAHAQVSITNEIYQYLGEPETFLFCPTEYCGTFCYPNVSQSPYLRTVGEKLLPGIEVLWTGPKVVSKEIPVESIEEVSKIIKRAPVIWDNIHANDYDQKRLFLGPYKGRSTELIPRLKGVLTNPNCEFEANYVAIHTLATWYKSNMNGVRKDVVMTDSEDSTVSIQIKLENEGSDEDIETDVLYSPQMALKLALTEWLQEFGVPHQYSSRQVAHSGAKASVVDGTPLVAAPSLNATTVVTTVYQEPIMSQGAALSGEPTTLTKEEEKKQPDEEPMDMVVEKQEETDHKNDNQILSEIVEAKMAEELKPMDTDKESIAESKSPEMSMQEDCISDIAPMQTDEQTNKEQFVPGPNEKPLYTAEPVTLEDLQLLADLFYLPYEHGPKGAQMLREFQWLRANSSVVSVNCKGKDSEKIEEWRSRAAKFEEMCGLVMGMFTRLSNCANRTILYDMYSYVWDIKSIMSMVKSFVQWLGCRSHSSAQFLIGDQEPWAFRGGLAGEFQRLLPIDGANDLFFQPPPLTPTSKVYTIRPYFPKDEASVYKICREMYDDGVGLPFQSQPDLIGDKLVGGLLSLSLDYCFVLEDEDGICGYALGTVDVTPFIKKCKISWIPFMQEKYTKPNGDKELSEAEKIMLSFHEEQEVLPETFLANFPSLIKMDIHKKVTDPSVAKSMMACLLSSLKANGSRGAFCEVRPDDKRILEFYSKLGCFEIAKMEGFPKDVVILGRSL
The data set can be described thus: Determination of KI values for inhibition of O-GlcNAcase activity (fluorogenic 4-methylumbelliferyl GlcNAc substrate). Type of data set: biochemical. To be noted: purified human O-GlcNAcase 0.7 nM, 2 mM substrate, pH 7.0, room temperature; Cheng-Prusoff; read-out: Ki.

A short description of data set [2]: Determination of apparent permeability (Papp), bi-directional transport in LLC-PK1 cells. Type of data set: in vitro ADME. To be noted: pig, t=3 h, average of A to B and B to A. The method, then:
(§1) Bi-directional transport was evaluated in LLC-PK1 cells in order to determine apparent permeability (Papp). LLC-PK1 cells can form a tight monolayer and therefore can be used to assess vectorial transport of compounds from basolateral to apical (B→A) and from apical to basolateral (A→B).
(§2) To determine Papp LLC-PK1 cells were cultured in 96-well transwell culture plates (Millipore). Solutions containing the test compounds (1 μM) were prepared in Hank's Balanced Salt Solution with 10 mM HEPES. Substrate solution (150 μL) was added to either the apical (A) or the basolateral (B) compartment of the culture plate, and buffer (150 μL) was added to the compartment opposite to that containing the compound. At t=3 h, 50 μL samples were removed from both sides of monolayers dosed with test compound and placed in 96 well plates, scintillant (200 μL) or internal standard (100 μL labetolol 1 μM) was added to the samples and concentration was determined by liquid scintillation counting in a MicroBeta Wallac Trilux scintillation counter (Perkin Elmer Life Sciences, Boston, Mass.) or by LCMS/MS (Applied Biosystems SCIEX API 5000 triple quadruple mass spectrometer). [^3H]Verapamil (1 μM) was used as the positive control. The experiment was performed in triplicate.

In data set [3] the target is T2, hPgp (Homo sapiens, UniProt P08183).
T2 construct: expressed in transfected cells; host or cells: LLC-PK1 cells
The data set can be described thus: hPgp efflux ratio (Papp B→A/A→B ratio). It counts as in vitro ADME. As to conditions: LLC-PK1. As to the method: as §1, §2

T2 sequence (P08183 whole entry): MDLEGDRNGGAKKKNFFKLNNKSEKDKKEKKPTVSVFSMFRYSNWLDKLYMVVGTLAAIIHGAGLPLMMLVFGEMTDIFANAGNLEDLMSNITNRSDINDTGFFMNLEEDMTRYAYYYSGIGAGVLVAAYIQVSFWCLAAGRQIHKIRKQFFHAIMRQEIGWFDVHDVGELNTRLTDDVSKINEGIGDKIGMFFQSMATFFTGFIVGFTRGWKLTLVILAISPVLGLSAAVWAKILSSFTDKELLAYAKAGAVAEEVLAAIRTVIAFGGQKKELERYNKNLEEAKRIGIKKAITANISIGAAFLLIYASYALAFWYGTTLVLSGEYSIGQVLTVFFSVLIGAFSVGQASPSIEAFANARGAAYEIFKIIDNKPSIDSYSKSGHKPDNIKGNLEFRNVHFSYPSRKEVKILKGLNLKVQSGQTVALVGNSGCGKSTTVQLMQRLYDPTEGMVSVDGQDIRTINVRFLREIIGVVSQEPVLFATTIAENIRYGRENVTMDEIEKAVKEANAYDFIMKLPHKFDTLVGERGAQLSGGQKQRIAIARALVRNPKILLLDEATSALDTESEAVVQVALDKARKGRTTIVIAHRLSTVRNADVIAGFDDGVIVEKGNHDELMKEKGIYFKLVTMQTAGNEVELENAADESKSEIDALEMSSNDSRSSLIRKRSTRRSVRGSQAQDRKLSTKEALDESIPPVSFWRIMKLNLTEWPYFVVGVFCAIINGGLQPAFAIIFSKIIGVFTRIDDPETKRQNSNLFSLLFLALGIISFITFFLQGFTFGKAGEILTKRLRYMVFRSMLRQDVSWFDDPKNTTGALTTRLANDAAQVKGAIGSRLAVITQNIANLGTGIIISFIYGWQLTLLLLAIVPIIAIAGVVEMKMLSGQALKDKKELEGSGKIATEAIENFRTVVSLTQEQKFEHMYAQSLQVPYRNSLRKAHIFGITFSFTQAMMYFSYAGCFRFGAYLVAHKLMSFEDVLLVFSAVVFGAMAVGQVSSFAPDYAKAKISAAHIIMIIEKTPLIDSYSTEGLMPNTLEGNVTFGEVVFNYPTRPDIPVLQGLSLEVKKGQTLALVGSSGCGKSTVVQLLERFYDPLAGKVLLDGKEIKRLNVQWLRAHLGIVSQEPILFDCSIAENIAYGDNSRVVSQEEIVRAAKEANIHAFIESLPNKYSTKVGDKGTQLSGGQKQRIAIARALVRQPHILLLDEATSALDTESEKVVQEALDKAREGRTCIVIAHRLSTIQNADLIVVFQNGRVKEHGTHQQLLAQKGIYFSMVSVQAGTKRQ

In the case of `CNC1=N[C@@H]2[C@@H](O)[C@H](O)[C@@H](CCCc3ccc(OC)cc3)O[C@@H]2S1` [Example 34, (3aR,5R,6S,7R,7aR)-5-[3-(4-methoxyphenyl)propyl]-2-(methylamino)-5,6,7,7a-tetrahydro-3aH-pyrano[3,2-d][1,3]thiazole-6,7-diol], the inhibitory constant (Ki) – broadly, a dissociation constant, usually derived from enzyme kinetics or from competition with a known ligand – in data set [1] turned out to be 11.1 nM. Further, in data set [2], the Papp (as a rule, the rate of passage across a membrane or cell layer, normalised by area and donor concentration) at 3 h, 1 μM came to 25 ×10⁻⁶ cm/s. The efflux ratio (as a rule, the permeability from basolateral to apical divided by that in the opposite direction, in the common usage) at 3 h, 1 μM in data set [3] turned out to be 3.4.

On to `CNC1=N[C@@H]2[C@@H](O)[C@H](O)[C@@H](CS(=O)(=O)Cc3ccccc3)O[C@@H]2S1` [Example 62, (3aR,5S,6S,7R,7aR)-5-((benzylsulfonyl)methyl)-2-(methylamino)-5,6,7,7a-tetrahydro-3aH-pyrano[3,2-d]thiazole-6,7-diol], for which the inhibitory constant (Ki) in data set [1] amounted to 352 nM. In data set [2], the Papp at 3 h, 1 μM turned out to be 1.3 ×10⁻⁶ cm/s. In addition, the efflux ratio at 3 h, 1 μM in data set [3] came out at 1.1.
